Experimental data as given in ChEMBL document CHEMBL4725331, “An investigative study of antitumor properties of a novel thiazolo[4,5-d]pyrimidine small molecule revealing superior antitumor activity with CDK1 selectivity and potent pro-apoptotic properties” (Bioorg Med Chem, 2020).

Assays:
OVCAR-3 = assay: Antiproliferative activity against human OVCAR-3 cells assessed as inhibition of cell growth measured after 48 hrs by SRB assay; type: functional
UACC-257 [1] = assay: Antiproliferative activity against human UACC-257 cells assessed as inhibition of cell growth at 10 uM measured after 48 hrs by SRB assay relative to control; type: functional
NCI-H522 = assay: Antiproliferative activity against human NCI-H522 cells assessed as inhibition of cell growth at 10 uM measured after 48 hrs by SRB assay relative to control; type: functional
HCT-116 [2] = assay: Cytotoxicity against human HCT-116 cells assessed as reduction in cell viability after 48 hrs by MTT assay; type: functional, cell-based; conditions: HCT-116, 48 h
HCT-116 [3] = assay: Induction of apoptosis in human HCT116 cells assessed as decrease in Bcl2 gene expression by RT-PCR analysis relative to untreated control; type: functional
WI-38 [4] = assay: Cell cycle arrest in human WI-38 cells assessed as accumulation in S phase phase at IC50 concentration incubated for 48 hrs by propidium iodide staining based flow cytometry analysis (reference value: 33.8 %); conditions: wi-38, 48 h
HCT-116 [5] = assay: Cell cycle arrest in human HCT-116 cells assessed as accumulation in G2/M phase phase at IC50 concentration incubated for 48 hrs by propidium iodide staining based flow cytometry analysis (reference value: 13.75 %); type: functional
UO-31 = assay: Antiproliferative activity against human UO-31 cells assessed as inhibition of cell growth measured after 48 hrs by SRB assay; type: functional
NCI-H226 = assay: Antiproliferative activity against human NCI-H226 cells assessed as inhibition of cell growth measured after 48 hrs by SRB assay; type: functional
MOLT-4 = assay: Antiproliferative activity against human MOLT-4 cells assessed as inhibition of cell growth measured after 48 hrs by SRB assay; type: functional
HCT-116 [6] = assay: Induction of apoptosis in human HCT-116 cells assessed as late apoptotic cells at IC50 incubated for 48 hrs by annexin-V FITC and propidium iodide staining based flow cytometry analysis (reference value: 0.28 %); type: functional
HCT-116 [7] = assay: Cell cycle arrest in human HCT-116 cells assessed as accumulation in G0/G1 phase at IC50 concentration incubated for 48 hrs by propidium iodide staining based flow cytometry analysis (reference value: 42.5 %); type: functional
SF-268 = assay: Antiproliferative activity against human SF-268 cells assessed as inhibition of cell growth measured after 48 hrs by SRB assay; type: functional
SK-MEL-2 = assay: Antiproliferative activity against human SK-MEL-2 cells assessed as inhibition of cell growth measured after 48 hrs by SRB assay; type: functional
PC-3 = assay: Antiproliferative activity against human PC-3 cells assessed as inhibition of cell growth measured after 48 hrs by SRB assay; type: functional
MDA-MB-231 = assay: Antiproliferative activity against human MDA-MB-231 cells assessed as inhibition of cell growth measured after 48 hrs by SRB assay; type: functional
RXF 393 = assay: Antiproliferative activity against human RXF 393 cells assessed as inhibition of cell growth at 10 uM measured after 48 hrs by SRB assay relative to control; type: functional
WI-38 [8] = assay: Cell cycle arrest in human WI-38 cells assessed as accumulation in sub-G phase at IC50 concentration incubated for 48 hrs by propidium iodide staining based flow cytometry analysis (reference value: 1.35 %); conditions: wi-38, 48 h
SN12C = assay: Antiproliferative activity against human SN12C cells assessed as inhibition of cell growth measured after 48 hrs by SRB assay; type: functional
UACC-62 = assay: Antiproliferative activity against human UACC-62 cells assessed as inhibition of cell growth measured after 48 hrs by SRB assay; type: functional
CAKI-1 = assay: Antiproliferative activity against human CAKI-1 cells assessed as inhibition of cell growth measured after 48 hrs by SRB assay; type: functional
NCI-H460 = assay: Antiproliferative activity against human NCI-H460 cells assessed as inhibition of cell growth at 10 uM measured after 48 hrs by SRB assay relative to control; type: functional
HOP-92 = assay: Antiproliferative activity against human HOP-92 cells assessed as inhibition of cell growth at 10 uM measured after 48 hrs by SRB assay relative to control; type: functional
Hs-578T = assay: Antiproliferative activity against human Hs-578T cells assessed as inhibition of cell growth at 10 uM measured after 48 hrs by SRB assay relative to control; type: functional
SW-620 = assay: Antiproliferative activity against human SW-620 cells assessed as inhibition of cell growth at 10 uM measured after 48 hrs by SRB assay relative to control; type: functional
HCT-116 [9] = assay: Antiproliferative activity against human HCT-116 cells assessed as inhibition of cell growth measured after 48 hrs by SRB assay; type: functional
CCRF-CEM = assay: Antiproliferative activity against human CCRF-CEM cells assessed as inhibition of cell growth measured after 48 hrs by SRB assay; type: functional
SR = assay: Antiproliferative activity against human SR cells assessed as inhibition of cell growth measured after 48 hrs by SRB assay; type: functional
UACC-257 [10] = assay: Antiproliferative activity against human UACC-257 cells assessed as inhibition of cell growth measured after 48 hrs by SRB assay; type: functional
K562 = assay: Antiproliferative activity against human K562 cells assessed as inhibition of cell growth measured after 48 hrs by SRB assay; type: functional
KM12 = assay: Antiproliferative activity against human KM12 cells assessed as inhibition of cell growth measured after 48 hrs by SRB assay; type: functional
BT-549 = assay: Antiproliferative activity against human BT-549 cells assessed as inhibition of cell growth measured after 48 hrs by SRB assay; type: functional
[11] = target: Cyclin-dependent kinase 1/cyclin B1 (Homo sapiens, UniProt P06493); assay: Inhibition of CDK1/cyclinB (unknown origin); type: protein-complex assay
[12] = read-out: LC50 (the source's name)

Cyclin-dependent kinase 1/cyclin B1, sequence (P06493 whole entry): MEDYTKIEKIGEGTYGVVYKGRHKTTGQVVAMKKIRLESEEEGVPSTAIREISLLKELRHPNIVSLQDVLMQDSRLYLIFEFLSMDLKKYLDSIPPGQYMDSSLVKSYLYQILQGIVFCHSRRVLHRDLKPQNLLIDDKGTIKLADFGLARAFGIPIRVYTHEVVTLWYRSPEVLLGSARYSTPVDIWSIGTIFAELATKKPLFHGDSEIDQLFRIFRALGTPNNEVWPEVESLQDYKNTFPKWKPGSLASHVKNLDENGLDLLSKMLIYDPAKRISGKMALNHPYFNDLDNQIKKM
Cyclin-dependent kinase 1/cyclin B1, sequence (P14635 whole entry, further chain): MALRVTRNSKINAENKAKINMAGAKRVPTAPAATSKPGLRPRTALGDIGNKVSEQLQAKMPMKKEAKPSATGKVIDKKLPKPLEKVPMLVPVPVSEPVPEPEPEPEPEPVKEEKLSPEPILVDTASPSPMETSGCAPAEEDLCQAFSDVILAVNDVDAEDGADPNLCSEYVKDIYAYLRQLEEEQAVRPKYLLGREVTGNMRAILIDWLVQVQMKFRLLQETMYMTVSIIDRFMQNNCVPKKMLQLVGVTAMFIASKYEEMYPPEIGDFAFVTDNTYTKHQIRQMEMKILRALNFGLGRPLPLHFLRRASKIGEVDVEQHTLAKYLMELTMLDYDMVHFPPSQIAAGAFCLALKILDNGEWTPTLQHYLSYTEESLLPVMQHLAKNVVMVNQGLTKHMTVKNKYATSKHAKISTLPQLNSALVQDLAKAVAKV

COc1ccc(-n2c(=S)sc3c(Cl)nc(C)nc32)c(OC)c1
GI50 (OVCAR-3): 1.78 µM
TGI (OVCAR-3): 3.24 µM
CC50 (OVCAR-3; [12]): 5.89 µM
inhibition at 10 µM (UACC-257 [1]): > 50%
inhibition at 10 µM (NCI-H522): > 50%
IC50 (HCT-116 [2]): 5.34 µM
fold change (FC) (HCT-116 [3]): 3.64
Activity (WI-38 [4]): 26.39%
Activity (HCT-116 [5]): 29.82%
GI50 (UO-31): 3.63 µM
TGI (UO-31): 15.5 µM
CC50 (UO-31; [12]): 39.8 µM
GI50 (NCI-H226): 3.24 µM
TGI (NCI-H226): 12 µM
CC50 (NCI-H226; [12]): 44.7 µM
GI50 (MOLT-4): 2.14 µM
TGI (MOLT-4): 5.5 µM
CC50 (MOLT-4; [12]): > 100 µM
Activity (HCT-116 [6]): 12.78%
Activity (HCT-116 [7]): 22.42%
GI50 (SF-268): 2.19 µM
TGI (SF-268): 5.25 µM
CC50 (SF-268; [12]): 17 µM
GI50 (SK-MEL-2): 2.04 µM
TGI (SK-MEL-2): 3.98 µM
CC50 (SK-MEL-2; [12]): 7.76 µM
GI50 (PC-3): 2.4 µM
TGI (PC-3): 5.89 µM
CC50 (PC-3; [12]): 22.9 µM
GI50 (MDA-MB-231): 3.16 µM
TGI (MDA-MB-231): 10.2 µM
CC50 (MDA-MB-231; [12]): 34.7 µM
inhibition at 10 µM (RXF 393): > 50%
Activity (WI-38 [8]): 6.1%
GI50 (SN12C): 2.82 µM
TGI (SN12C): 9.12 µM
CC50 (SN12C; [12]): 36.3 µM
GI50 (UACC-62): 2.04 µM
TGI (UACC-62): 4.68 µM
CC50 (UACC-62; [12]): 12 µM
GI50 (CAKI-1): 6.17 µM
TGI (CAKI-1): 19.5 µM
CC50 (CAKI-1; [12]): 45.7 µM
inhibition at 10 µM (NCI-H460): > 50%
inhibition at 10 µM (HOP-92): > 50%
inhibition at 10 µM (Hs-578T): > 50%
inhibition at 10 µM (SW-620): > 50%
GI50 (HCT-116 [9]): 1.82 µM
TGI (HCT-116 [9]): 3.72 µM
CC50 (HCT-116 [9]; [12]): 7.59 µM
GI50 (CCRF-CEM): 2.69 µM
TGI (CCRF-CEM): 7.41 µM
CC50 (CCRF-CEM; [12]): > 100 µM
GI50 (SR): 1.41 µM
TGI (SR): 5.5 µM
CC50 (SR; [12]): > 100 µM
GI50 (UACC-257 [10]): 2.34 µM
TGI (UACC-257 [10]): 5.62 µM
CC50 (UACC-257 [10]; [12]): 18.2 µM
GI50 (K562): 1.2 µM
TGI (K562): 3.8 µM
CC50 (K562; [12]): > 100 µM
GI50 (KM12): 3.31 µM
TGI (KM12): 11.5 µM
CC50 (KM12; [12]): 37.1 µM
GI50 (BT-549): 2 µM
TGI (BT-549): 4.27 µM
CC50 (BT-549; [12]): 9.12 µM
IC50 [11]: 0.097 µM
